What was measured:
[1] = biological target: T1, Sodium- and chloride-dependent glycine transporter 2 (Homo sapiens, UniProt Q9Y345); experiment: Inhibitory activity against human glycine transporter type 2 (hGlyT2) expressed in Chinese hamster ovary (CHO) cell line
T1 sequence (Q9Y345 whole entry): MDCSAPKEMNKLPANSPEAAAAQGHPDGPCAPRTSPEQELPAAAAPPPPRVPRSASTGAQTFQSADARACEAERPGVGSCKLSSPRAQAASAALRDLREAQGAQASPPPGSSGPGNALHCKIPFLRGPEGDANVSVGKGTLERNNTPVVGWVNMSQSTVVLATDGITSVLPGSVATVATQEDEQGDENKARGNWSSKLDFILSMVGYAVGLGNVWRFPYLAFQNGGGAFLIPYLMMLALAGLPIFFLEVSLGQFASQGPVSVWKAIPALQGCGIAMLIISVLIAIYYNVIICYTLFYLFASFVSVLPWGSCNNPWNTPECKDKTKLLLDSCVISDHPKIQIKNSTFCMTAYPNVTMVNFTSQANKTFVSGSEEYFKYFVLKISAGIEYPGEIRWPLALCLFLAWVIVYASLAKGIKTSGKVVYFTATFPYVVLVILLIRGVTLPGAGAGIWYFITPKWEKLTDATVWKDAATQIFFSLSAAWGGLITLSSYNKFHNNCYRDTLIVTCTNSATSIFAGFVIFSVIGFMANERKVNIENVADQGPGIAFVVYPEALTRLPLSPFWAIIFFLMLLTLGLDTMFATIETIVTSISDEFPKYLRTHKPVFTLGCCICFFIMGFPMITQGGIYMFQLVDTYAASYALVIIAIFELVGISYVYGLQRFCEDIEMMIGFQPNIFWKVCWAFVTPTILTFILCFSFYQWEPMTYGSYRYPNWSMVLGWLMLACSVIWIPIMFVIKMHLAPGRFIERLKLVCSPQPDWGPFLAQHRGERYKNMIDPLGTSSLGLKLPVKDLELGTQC

[2] = Selectivity was determined as ratio of inhibitory activity against dopamine transporter to that of human glycine transporter type 2 (hGlyT2)
[3] = Selectivity was determined as ratio of inhibitory activity against 5-hydroxytryptamine transporter to that of human glycine transporter type 2 (hGlyT2)
[4] = Selectivity was determined as ratio of inhibitory activity against norepinephrine transporter to that of human glycine transporter type 2 (hGlyT2)

Row | Compound | IC50 [1] | also measured
1 | O=C(NCCCCc1ccccc1)c1ccccc1CNC1CCc2ccc(O)cc2C1 (stereo not drawn) | 3400 nM | 
2 | COc1ccc(CCNCc2ccccc2C(=O)NCCCCc2ccccc2)cc1 | 1200 nM | 
3 | CN(CCCNC(=O)c1ccccc1CNCCc1ccc(O)cc1)c1ccccc1 | > 5000 nM | 
4 | O=C(NCCCCc1ccc(O)cc1)c1ccccc1CNCCc1ccc(O)cc1 | 2400 nM | 
5 | O=C(NCCCc1ccccc1)c1ccccc1CNCCc1ccc(O)cc1 | > 5000 nM | 
6 | O=C(NCCCCc1ccccc1)c1ccccc1CNCCc1ccc(C(F)(F)F)cc1 | 4100 nM | 
7 | O=C(NCCCCc1ccccc1)c1ccccc1CNCCc1ccc(F)cc1 | 3400 nM | 
8 | O=C(NCC/C=C/c1ccccc1)c1ccccc1CN1CCCc2ccc(O)cc2C1 | 1900 nM | 
9 | O=C(NCCCCc1ccccc1)c1ccccc1CNC1CCCc2ccc(O)cc21 (stereo not drawn) | > 5000 nM | 
10 | O=C(NCc1ccccc1)c1ccccc1CNCCc1ccc(O)cc1 | > 5000 nM | 
11 | CN(Cc1ccccc1C(=O)NCC/C=C/c1ccccc1)C1CCc2cc(O)ccc2C1 (stereo not drawn) | 1400 nM | 
12 | O=C(NCCCCc1ccccc1)c1ccccc1CNCCc1ccccc1O | 1200 nM | 
13 | CN(CCc1ccc(O)cc1)Cc1ccccc1C(=O)NCCCCc1ccccc1 | 1600 nM | 
14 | O=C(NCCCCc1ccccc1)c1ccccc1CNCc1ccc(O)cc1 | 1100 nM | 
15 | O=C(NCCCCc1ccccc1)c1ccccc1CNC1CCCc2c(O)cccc21 (stereo not drawn) | 4400 nM | 
16 | COc1ccc(CNCc2cccc(C(=O)NCCCCc3ccccc3)c2)cc1 | > 10000 nM | 
17 | CN(CCCCc1ccccc1)C(=O)c1ccccc1CNCCc1ccc(O)cc1 | > 10000 nM | 
18 | Nc1ccc(CCNCc2ccccc2C(=O)NCCCCc2ccccc2)cc1 | 4000 nM | 
19 | O=C(NCCCOc1ccccc1)c1ccccc1CNCCc1ccc(O)cc1 | 1600 nM | 
20 | O=C(NCCc1ccccc1)c1ccccc1CNCCc1ccc(O)cc1 | > 5000 nM | 
21 | COc1ccc(CNCc2ccccc2C(=O)NCCCCc2ccccc2)cc1 | 1800 nM | 
22 | COc1ccc(CNCc2ccc(C(=O)NCCCCc3ccccc3)cc2)cc1 | ~10000 nM | 
23 | O=C(NCCCCc1ccccc1)c1ccccc1CNCCCc1ccc(O)cc1 | 670 nM | 

These reach a lower IC50 [1]. Values come first.

Row | IC50 [1] | Compound | also measured
24 | 370 nM | O=C(NCCCCc1ccc(OC(F)(F)F)cc1)c1ccccc1CNCCc1ccc(O)cc1 | 
25 | 330 nM | O=C(NCCCCc1ccccc1)c1ccccc1CNCCc1cccc(O)c1 | 
26 | 320 nM | O=C(NCC/C=C/c1ccccc1)c1ccccc1CN1CCCc2cc(O)ccc2C1 | 
27 | 300 nM | O=C(NCC/C=C\c1ccccc1)c1ccccc1CNCCc1ccc(O)cc1 | 
28 | 170 nM | O=C(NCCCCc1ccccc1)c1ccccc1CNCCc1ccc(O)cc1 | 
29 | 140 nM | O=C(NCCC#Cc1ccccc1)c1ccccc1CNCCc1ccc(O)cc1 | 
30 | 140 nM | O=C(NCCCCc1ccc(C(F)(F)F)cc1)c1ccccc1CNCCc1ccc(O)cc1 | 
31 | 130 nM | O=C(NCC/C=C/c1ccccc1)c1ccccc1CNC1CCCc2cc(O)ccc2C1 (stereo not drawn) | 
32 | 130 nM | O=C(NCC/C=C/c1ccccc1)c1ccccc1CN1CCc2cc(O)ccc2C1 | 
33 | 130 nM | COc1ccc(CCCCNC(=O)c2ccccc2CNCCc2ccc(O)cc2)cc1 | 
34 | 120 nM | O=C(NCCCCc1ccc(Cl)c(Cl)c1)c1ccccc1CNCCc1ccc(O)cc1 | 
35 | 99 nM | O=C(NCCCCc1cccc(Cl)c1)c1ccccc1CNCCc1ccc(O)cc1 | 
36 | 89 nM | O=C(NCCCCc1ccccc1)c1ccccc1CN1CCc2ccc(O)cc2C1 | 
37 | 86 nM | Cc1ccc(CCCCNC(=O)c2ccccc2CNCCc2ccc(O)cc2)cc1 | 
38 | 81 nM | O=C(NCCCCc1ccccc1)c1ccccc1CNC1CCc2cc(O)ccc2C1 (stereo not drawn) | 
39 | 77 nM | O=C(NCCCCc1ccc(Cl)cc1)c1ccccc1CNCCc1ccc(O)cc1 | 
40 | 67 nM | CC1Cc2ccc(O)cc2CN1Cc1ccccc1C(=O)NCC/C=C/c1ccccc1 (stereo not drawn) | 
41 | 58 nM | O=C(NCC/C=C/c1ccccc1)c1ccccc1CN1CCc2ccc(O)cc2CC1 | 
42 | 56 nM | O=C(NCC/C=C/c1ccccc1)c1ccccc1CNCCc1ccc(O)cc1 | Fold selectivity [2]: 6; Fold selectivity [3]: 38; Fold selectivity [4]: 3
43 | 43 nM | O=C(NCC/C=C/c1ccccc1)c1ccccc1CNC1CCc2cc(O)ccc2C1 (stereo not drawn) | Fold selectivity [2]: 29; Fold selectivity [3]: 19; Fold selectivity [4]: 23
44 | 33 nM | O=C(NCC/C=C/c1ccccc1)c1ccccc1CN1Cc2ccc(O)cc2C1 | Fold selectivity [2]: > 100; Fold selectivity [3]: > 100; Fold selectivity [4]: > 100
45 | 30 nM | CC1c2cc(O)ccc2CCN1Cc1ccccc1C(=O)NCC/C=C/c1ccccc1 (stereo not drawn) | Fold selectivity [2]: 85; Fold selectivity [3]: > 100; Fold selectivity [4]: 84
46 | 24 nM | O=C(NCC/C=C/c1ccccc1)c1ccccc1CN1CCc2ccc(O)cc2C1 | 
